Assays:
[1] = biological target: PTC of the ribosome; design: method as in PMID 23824292; settings: read-out: Apparent Ki, peptide release; cited from earlier work
[2] = biological target: PTC of the ribosome; design: method as in PMID 23824292; settings: fold higher Ki than for termination; cited from earlier work
[3] = test system: Escherichia coli strain MG1655; assay: MIC on bacterial growth, wt E. coli (broth micro-dilution); assay type: cell-based; settings: 500 mg l^−1 highest concentration tested
Protocol: The four different strains analyzed were wild type (wt) Staphylococcus aureus (strain ATCC 29213), wt Escherichia coli (strain MG1655, K12), a drug-hypersensitive E. coli lpxC mutant D22 (strain MG1655) and an efflux-defective E. coli ΔtolC mutant (strain MG1655). These were grown in cation-adjusted Mueller Hinton II media (MH II, Nordic Biolabs), the standard medium for antibiotic susceptibility testing. For overnight cell cultures one colony from a MH II (Nordic Biolabs) plate was inoculated in 1 ml MH II media in a 10 ml tube and the bacteria was incubated at 37 °C shaking at 190 rpm. Cells from the overnight culture was used for MIC determinations and time-kill experiments.
The minimal inhibitory concentrations (MIC) of the drugs were measured in 96-well round-bottom microtiter plates using cation-adjusted Mueller-Hinton II (MH II) media. All measurements were done with at least three biological replicates. Briefly, bacterial colonies from a non-selective agar plate were re-suspended in 0.9% NaCl to 0.5 McFarland ( ≅1.5×10^8 cfu/ml). The cell suspension was further diluted to ≅5×10^5 cfu/ml (50 µl of bacterial suspension to 10 ml of MHII) and then 90 µl of cell suspension ( ≅5×10^5 […]) was added to each well. […] The MIC value was determined visually as the lowest concentration of drug that inhibited growth.

[4] = test system: Staphylococcus aureus strain ATCC29213; assay: MIC on bacterial growth, wt S. aureus (broth micro-dilution); assay type: cell-based
Protocol: The minimal inhibitory concentrations (MIC) of the drugs were measured in 96-well round-bottom microtiter plates using cation-adjusted Mueller-Hinton II (MH II) media. All measurements were done with at least three biological replicates. Briefly, bacterial colonies from a non-selective agar plate were re-suspended in 0.9% NaCl to 0.5 McFarland ( ≅1.5×10^8 cfu/ml). The cell suspension was further diluted to ≅5×10^5 cfu/ml (50 µl of bacterial suspension to 10 ml of MHII) and then 90 µl of cell suspension ( ≅5×10^5 cfu/l) was added to each well. […] The MIC value was determined visually as the lowest concentration of drug that inhibited growth.

CN(CC[C@H](N)CC(=O)N[C@H]1C=C[C@H](n2ccc(N)nc2=O)O[C@@H]1C(=O)O)C(=N)N [Blasticidin S]
Ki [1]: ~30 nM | Ki for peptide bond formation relative to termination reaction [2]: 6 fold

kirromycin
MIC E. coli K12 wt [3]: 50 µg/mL | MIC S. aureus wt [4]: 100 µg/mL

Reference: paper PMC6817905, “Inhibition of translation termination by small molecules targeting ribosomal release factors” (Scientific Reports, 2019)
